Measurements: PubChem BioAssay AID1963839 (Molecular Pharmacology Branch, DTP, NCI, 2024)

Tested on: 817829-284-R-J1-PDC complex spheroid viability
Assay: Anticancer human tumor 817829-284-R-J1-PDC patient-derived colon adenocarcinoma cell line growth inhibition [POLQ]
Details: for IC50: curve of first compound; for viability, T/C: stronger effect = lower value
Method in brief: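 PDC + HUVEC + MSC complex spheroids; POLQ inhibitors ± partner drugs; top conc. at/near clinical Cmax, else 10 microM (SN-38 1 microM), half-log dilutions; 37 degrees C, 5% CO2.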

[1] = second compound 0.0316 µM, first compound 0.0316 µM
[2] = second compound 0.0316 µM, first compound 0.1 µM
[3] = second compound 0.0316 µM, first compound 0.316 µM
[4] = second compound 0.0316 µM, first compound 1 µM
[5] = second compound 0.0316 µM, first compound 3.16 µM
[6] = second compound 0.0316 µM, first compound 10 µM
[7] = second compound 0.1 µM, first compound 0.0316 µM
[8] = second compound 0.1 µM, first compound 0.1 µM
[9] = second compound 0.1 µM, first compound 0.316 µM
[10] = second compound 0.1 µM, first compound 1 µM
[11] = second compound 0.1 µM, first compound 3.16 µM
[12] = second compound 0.1 µM, first compound 10 µM
[13] = second compound 0.316 µM, first compound 0.0316 µM
[14] = second compound 0.316 µM, first compound 0.1 µM
[15] = second compound 0.316 µM, first compound 0.316 µM
[16] = second compound 0.316 µM, first compound 1 µM
[17] = second compound 0.316 µM, first compound 3.16 µM
[18] = second compound 0.316 µM, first compound 10 µM
[19] = second compound 1 µM, first compound 0.0316 µM
[20] = second compound 1 µM, first compound 0.1 µM
[21] = second compound 1 µM, first compound 0.316 µM
[22] = second compound 1 µM, first compound 1 µM
[23] = second compound 1 µM, first compound 3.16 µM
[24] = second compound 1 µM, first compound 10 µM
[25] = second compound 3.16 µM, first compound 0.0316 µM
[26] = second compound 3.16 µM, first compound 0.1 µM
[27] = second compound 3.16 µM, first compound 0.316 µM
[28] = second compound 3.16 µM, first compound 1 µM
[29] = second compound 3.16 µM, first compound 3.16 µM
[30] = second compound 3.16 µM, first compound 10 µM
[31] = second compound 10 µM, first compound 0.0316 µM
[32] = second compound 10 µM, first compound 0.1 µM
[33] = second compound 10 µM, first compound 0.316 µM
[34] = second compound 10 µM, first compound 1 µM
[35] = second compound 10 µM, first compound 3.16 µM
[36] = second compound 10 µM, first compound 10 µM
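Also: spheroids exposed to compounds for 7 days.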
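For viability, T/C in this document: 100% = DMSO vehicle-treated spheroids.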

C#Cc1c(F)ccc2cc(O)cc(-c3ncc4c(N5CC6CCC(C5)N6)nc(OCC56CCCN5CC(F)C6)nc4c3F)c12 (stereo unspecified) + Nc1ccc(C#CCN(C(=O)Cc2ncc(C(F)(F)F)cc2C(F)(F)F)c2ccc(F)cc2)nn1
IC50 (second compound 0.0316 µM): > 10 µM | IC50 (second compound 0.1 µM): > 10 µM | IC50 (second compound 0.316 µM): > 10 µM | IC50 (second compound 1 µM): > 10 µM | IC50 (second compound 3.16 µM): > 10 µM | IC50 (second compound 10 µM): > 10 µM | viability, T/C [1]: 78.6% | viability, T/C [2]: 105% | viability, T/C [3]: 104% | viability, T/C [4]: 93.8% | viability, T/C [5]: 114% | viability, T/C [6]: 84.2% | viability, T/C [7]: 92.1% | viability, T/C [8]: 87.9% | viability, T/C [9]: 93% | viability, T/C [10]: 92.4% | viability, T/C [11]: 103% | viability, T/C [12]: 92.7% | viability, T/C [13]: 101% | viability, T/C [14]: 94.5% | viability, T/C [15]: 105% | viability, T/C [16]: 86.8% | viability, T/C [17]: 116% | viability, T/C [18]: 91.8% | viability, T/C [19]: 106% | viability, T/C [20]: 88.4% | viability, T/C [21]: 98.6% | viability, T/C [22]: 91.6% | viability, T/C [23]: 97.9% | viability, T/C [24]: 101% | viability, T/C [25]: 97.5% | viability, T/C [26]: 99.8% | viability, T/C [27]: 101% | viability, T/C [28]: 86.9% | viability, T/C [29]: 93.2% | viability, T/C [30]: 95.7% | viability, T/C [31]: 95.5% | viability, T/C [32]: 102% | viability, T/C [33]: 73.8% | viability, T/C [34]: 102% | viability, T/C [35]: 96.3% | viability, T/C [36]: 80.4%

CC1COCCN1c1cc(C2(O)CC3CCC(C2)O3)c2cnn(-c3ccn[nH]3)c2n1 (stereo unspecified) + Nc1ccc(C#CCN(C(=O)Cc2ncc(C(F)(F)F)cc2C(F)(F)F)c2ccc(F)cc2)nn1
IC50 (second compound 0.0316 µM): < 0.0316 µM | IC50 (second compound 0.1 µM): < 0.0316 µM | IC50 (second compound 0.316 µM): < 0.0316 µM | IC50 (second compound 1 µM): < 0.0316 µM | IC50 (second compound 3.16 µM): < 0.0316 µM | IC50 (second compound 10 µM): < 0.0316 µM | viability, T/C [1]: 26.3% | viability, T/C [2]: 7.07% | viability, T/C [3]: 4.65% | viability, T/C [4]: 3.5% | viability, T/C [5]: 3.48% | viability, T/C [6]: 3.16% | viability, T/C [7]: 36% | viability, T/C [8]: 9.38% | viability, T/C [9]: 4.42% | viability, T/C [10]: 3.56% | viability, T/C [11]: 2.98% | viability, T/C [12]: 2.77% | viability, T/C [13]: 25.9% | viability, T/C [14]: 10.1% | viability, T/C [15]: 4.5% | viability, T/C [16]: 3.48% | viability, T/C [17]: 3.21% | viability, T/C [18]: 2.42% | viability, T/C [19]: 29.4% | viability, T/C [20]: 10.3% | viability, T/C [21]: 4.41% | viability, T/C [22]: 3.09% | viability, T/C [23]: 2.69% | viability, T/C [24]: 2.28% | viability, T/C [25]: 29.5% | viability, T/C [26]: 7.74% | viability, T/C [27]: 3.99% | viability, T/C [28]: 2.88% | viability, T/C [29]: 2.96% | viability, T/C [30]: 2.33% | viability, T/C [31]: 22% | viability, T/C [32]: 8.66% | viability, T/C [33]: 3.65% | viability, T/C [34]: 3.1% | viability, T/C [35]: 2.74% | viability, T/C [36]: 2.24%

O=C(Nc1ccc(O)c(NS(=O)(=O)c2ccc(F)cc2)c1)c1ccc(-c2ccccc2)cc1 + Nc1ccc(C#CCN(C(=O)Cc2ncc(C(F)(F)F)cc2C(F)(F)F)c2ccc(F)cc2)nn1
IC50 (second compound 0.0316 µM): 6.53 µM | IC50 (second compound 0.1 µM): 7.12 µM | IC50 (second compound 0.316 µM): 6.8 µM | IC50 (second compound 1 µM): 7.73 µM | IC50 (second compound 3.16 µM): 7.08 µM | IC50 (second compound 10 µM): 6.95 µM | viability, T/C [1]: 109% | viability, T/C [2]: 94.8% | viability, T/C [3]: 107% | viability, T/C [4]: 101% | viability, T/C [5]: 70.2% | viability, T/C [6]: 38.1% | viability, T/C [7]: 103% | viability, T/C [8]: 110% | viability, T/C [9]: 90.6% | viability, T/C [10]: 102% | viability, T/C [11]: 74.7% | viability, T/C [12]: 39.7% | viability, T/C [13]: 113% | viability, T/C [14]: 105% | viability, T/C [15]: 105% | viability, T/C [16]: 107% | viability, T/C [17]: 76.9% | viability, T/C [18]: 36.5% | viability, T/C [19]: 113% | viability, T/C [20]: 102% | viability, T/C [21]: 100% | viability, T/C [22]: 98.2% | viability, T/C [23]: 86.6% | viability, T/C [24]: 39.5% | viability, T/C [25]: 100% | viability, T/C [26]: 98.5% | viability, T/C [27]: 119% | viability, T/C [28]: 96.2% | viability, T/C [29]: 88% | viability, T/C [30]: 34.1% | viability, T/C [31]: 103% | viability, T/C [32]: 88.9% | viability, T/C [33]: 113% | viability, T/C [34]: 97.2% | viability, T/C [35]: 85.3% | viability, T/C [36]: 33.8%
